In publication PMC11823630, “In vitro potentiation of tetracyclines in Pseudomonas aeruginosa by RW01, a new cyclic peptide” (Antimicrobial Agents and Chemotherapy, 2024):
Converted amounts (≈) assume the structure as drawn.

Legend:
[1] = test system: PAO1 mutant MIN8_1, nalD(R3C), pilM(Q62X); test: MIC, Sensititre custom plate; type: cell-based; details: Pseudomonas aeruginosa, PAO1, read-out: MIC, Sensititre
Description: (§1) Selection of resistant mutants was performed for minocycline with and without RW01 in three independent replicates for wild-type P. aeruginosa reference strain PAO1. Tubes containing Mueller-Hinton broth (MHB) were inoculated and incubated for 24 h at 37°C. Afterward, 1/100 dilution of each tube was incubated at 37°C in MHB to late-exponential growth phase, measured by spectrophotometry at OD600. […] A control plate without antibiotic was included as inoculum control. After overnight incubation, colony counting of each treatment was performed to analyze the generation of resistant population. The mutant prevention concentration (MPC) was defined as the lowest concentration of antibiotic yielding no growth of resistant mutants. Selected mutants were checked for susceptibility profiles by using a Sensititre custom plate (Thermo Fisher Scientific, Massachusetts, USA) for Gram-negative bacteria, following the manufacturer’s instructions.

[2] = test system: PAO1 mutant MIN4_RW01_1, pmrB(R429H); test: MIC, Sensititre custom plate; type: cell-based; details: Pseudomonas aeruginosa, PAO1, read-out: MIC, Sensititre
Description: as §1

[3] = test system: PAO1 mutant MIN2_RW01_2, pmrB(M292T); test: MIC, Sensititre custom plate; type: cell-based; details: Pseudomonas aeruginosa, PAO1, read-out: MIC, Sensititre
Description: as §1

[4] = test system: PAO1 mutant MIN1_RW01_3, pmrB(V215L); test: MIC, Sensititre custom plate; type: cell-based; details: Pseudomonas aeruginosa, PAO1, read-out: MIC, Sensititre
Description: as §1

[5] = test system: PAO1 mutant MIN8_3, pilZ(nt18InsT); test: MIC, Sensititre custom plate; type: cell-based; details: Pseudomonas aeruginosa, PAO1, read-out: MIC, Sensititre
Description: as §1

[6] = test system: PAO1 mutant MIN2_RW01_3, parS(V152A); test: MIC, Sensititre custom plate; type: cell-based; details: Pseudomonas aeruginosa, PAO1, read-out: MIC, Sensititre
Description: as §1

[7] = test system: PAO1 mutant MIN4_RW01_4, pmrB(Y98N); test: MIC, Sensititre custom plate; type: cell-based; details: Pseudomonas aeruginosa, PAO1, read-out: MIC, Sensititre
Description: as §1

[8] = test system: PAO1 mutant MIN8_2, pilZ(nt18InsT); test: MIC, Sensititre custom plate; type: cell-based; details: Pseudomonas aeruginosa, PAO1, read-out: MIC, Sensititre
Description: as §1

[9] = test system: PAO1 mutant MIN1_RW01_1, pmrB(Y98N); test: MIC, Sensititre custom plate; type: cell-based; details: Pseudomonas aeruginosa, PAO1, read-out: MIC, Sensititre
Description: as §1

[10] = test system: PAO1 mutant MIN16_3, nfxB(nt79∆14), pilB(N349K); test: MIC, Sensititre custom plate; type: cell-based; details: Pseudomonas aeruginosa, PAO1, read-out: MIC, Sensititre
Description: as §1

[11] = test system: PAO1 mutant MIN8_4, pilZ(nt18InsT); test: MIC, Sensititre custom plate; type: cell-based; details: Pseudomonas aeruginosa, PAO1, read-out: MIC, Sensititre
Description: as §1

[12] = test system: PAO1 mutant MIN2_RW01_4, pmrB(M292T); test: MIC, Sensititre custom plate; type: cell-based; details: Pseudomonas aeruginosa, PAO1, read-out: MIC, Sensititre
Description: as §1

P. aeruginosa PAO1, WT = test: MIC, Sensititre custom plate; type: cell-based; details: Pseudomonas aeruginosa, PAO1, read-out: MIC, Sensititre
Description: as §1

[13] = test system: PAO1 mutant MIN16_1, nalD(T43P); test: MIC, Sensititre custom plate; type: cell-based; details: Pseudomonas aeruginosa, PAO1, read-out: MIC, Sensititre
Description: as §1

[14] = test system: PAO1 mutant MIN1_RW01_2, mexR(G58E), pilB(G326D), hutC(Y181X); test: MIC, Sensititre custom plate; type: cell-based; details: Pseudomonas aeruginosa, PAO1, read-out: MIC, Sensititre
Description: as §1

[15] = test system: PAO1 mutant MIN4_RW01_3, pmrB(M292T); test: MIC, Sensititre custom plate; type: cell-based; details: Pseudomonas aeruginosa, PAO1, read-out: MIC, Sensititre
Description: as §1

[16] = test system: PAO1 mutant MIN32_1, mexR(R63H), pilB(N349K), PA0646(V316G); test: MIC, Sensititre custom plate; type: cell-based; details: Pseudomonas aeruginosa, PAO1, read-out: MIC, Sensititre
Description: as §1

[17] = test system: PAO1 mutant MIN2_RW01_1, pmrB(V215L); test: MIC, Sensititre custom plate; type: cell-based; details: Pseudomonas aeruginosa, PAO1, read-out: MIC, Sensititre
Description: as §1

[18] = test system: PAO1 mutant MIN16_2, nalC(aa9∆4), pilQ(nt46∆1); test: MIC, Sensititre custom plate; type: cell-based; details: Pseudomonas aeruginosa, PAO1, read-out: MIC, Sensititre
Description: as §1

[19] = test system: PAO1 mutant MIN16_4, nalC(T50P), pilM(Q62X); test: MIC, Sensititre custom plate; type: cell-based; details: Pseudomonas aeruginosa, PAO1, read-out: MIC, Sensititre
Description: as §1

P. aeruginosa 41B = test: MIC, CLSI broth microdilution in BD Phoenix AST Broth; type: cell-based, Pseudomonas aeruginosa; details: Pseudomonas aeruginosa; strain 41B; agent alone; 37°C, 18–22 h; three biological replicates
Description: (§2) MIC for RW01 was also tested.
(§3) FIC of RW01 (FICRW01)=MIC of RW01 in combination/MIC of RW01 alone,FIC of antibiotic (FICATB)=MIC of ATB in combination/MIC of ATB alone,FICI=FICRW01 +FICATB.
(§4) FICI was interpreted as follows: synergistic effect if FICI is ≤0.5; additive effect if 0.5 < FICI ≤ 1.0; indifferent effect if 1.0 < FICI ≤ 2.0; and finally, antagonistic effect if FICI is >2.0. The average FICI considering the antibiotic MIC (no growth in any of the replicates) at different concentrations of RW01 was calculated ([28]).

P. aeruginosa PAOΔoprM = test: as above; type: cell-based, Pseudomonas aeruginosa; details: Pseudomonas aeruginosa
Description: as §2, §3, §4

P. aeruginosa PAOUW∆oprF = test: as above; type: cell-based, Pseudomonas aeruginosa; details: Pseudomonas aeruginosa, strain PAOUWΔoprF; agent alone; 37°C, 18–22 h; three biological replicates
Description: as §2, §3, §4

P. aeruginosa PAOUW = test: as above; type: cell-based, Pseudomonas aeruginosa; details: Pseudomonas aeruginosa, strain PAOUW; agent alone; 37°C, 18–22 h; three biological replicates; read-out: MIC
Description: as §2, §3, §4

P. aeruginosa PAO1 = test: as above; type: cell-based, Pseudomonas aeruginosa; details: Pseudomonas aeruginosa, PAO1, strain PAO1; agent alone; 37°C, 18–22 h; three biological replicates; read-out: MIC
Description: as §2, §3, §4

P. aeruginosa PAOΔmexR = test: as above; type: cell-based, Pseudomonas aeruginosa; details: Pseudomonas aeruginosa
Description: as §2, §3, §4

P. aeruginosa 125B = test: as above; type: cell-based, Pseudomonas aeruginosa; details: Pseudomonas aeruginosa; strain 125B; agent alone; 37°C, 18–22 h; three biological replicates
Description: as §2, §3, §4

P. aeruginosa 41A = test: as above; type: cell-based, Pseudomonas aeruginosa; details: Pseudomonas aeruginosa; strain 41A; agent alone; 37°C, 18–22 h; three biological replicates
Description: as §2, §3, §4

P. aeruginosa PAOΔmexZ = test: as above; type: cell-based, Pseudomonas aeruginosa; details: Pseudomonas aeruginosa, strain PAOΔmexZ; agent alone; 37°C, 18–22 h; three biological replicates
Description: as §2, §3, §4

P. aeruginosa 125A = test: as above; type: cell-based, Pseudomonas aeruginosa; details: Pseudomonas aeruginosa; strain 125A; agent alone; 37°C, 18–22 h; three biological replicates
Description: as §2, §3, §4

[20] = test system: PAO1 mutant MIN1_RW01_4, pmrB(F124L); test: microbe, parasite or virus in culture; type: cell-based; details: Pseudomonas aeruginosa, PAO1, read-out: MIC, Sensititre
Description: as §1

[21] = test system: PAO1 mutant MIN4_RW01_2, pmrB(F124S); test: microbe, parasite or virus in culture; type: cell-based; details: Pseudomonas aeruginosa, PAO1, read-out: MIC, Sensititre
Description: as §1

For `C[C@@H](O)[C@H]1C(=O)N2C(C(=O)O)=C(S[C@@H]3CN[C@H](C(=O)N(C)C)C3)[C@H](C)[C@H]12` [Meropenem, meropenem], the MIC [1] was 2 µg/mL (≈ 5.22 µM), the MIC [2] was 4 µg/mL (≈ 10.4 µM) and the MIC [3] was 1 µg/mL (≈ 2.61 µM). The MIC [4] was 1 µg/mL (≈ 2.61 µM), the MIC [5] was 2 µg/mL (≈ 5.22 µM) and the MIC [6] was 2 to 4 µg/mL (≈ 5.22 to 10.4 µM). For the same molecule, the MIC [7] was 1 µg/mL (≈ 2.61 µM), the MIC [8] was 2 µg/mL (≈ 5.22 µM) and the MIC [9] was 1 µg/mL (≈ 2.61 µM). It also gave an MIC [10] of no more than 0.5 µg/mL, an MIC [11] of 2 µg/mL (≈ 5.22 µM) and an MIC [12] of 1 µg/mL (≈ 2.61 µM). It also gave an MIC (P. aeruginosa PAO1, WT) of 1 to 2 µg/mL (≈ 2.61 to 5.22 µM), an MIC [13] of 4 µg/mL (≈ 10.4 µM) and an MIC [14] of 4 µg/mL (≈ 10.4 µM). The MIC [15] was 2 µg/mL (≈ 5.22 µM), the MIC [16] was 4 µg/mL (≈ 10.4 µM) and the MIC [17] was 1 µg/mL (≈ 2.61 µM). It also gave an MIC [18] of 2 µg/mL (≈ 5.22 µM), an MIC [19] of 2 µg/mL (≈ 5.22 µM) and an MIC (P. aeruginosa 41B) of 16 µg/mL. The MIC (P. aeruginosa PAOΔoprM) was 0.125 µg/mL, the MIC (P. aeruginosa PAOUW∆oprF) was 2 µg/mL and the MIC (P. aeruginosa PAOUW) was 1 µg/mL. It also gave an MIC (P. aeruginosa PAO1) of 0.5 µg/mL, an MIC (P. aeruginosa PAOΔmexR) of 1 µg/mL and an MIC (P. aeruginosa 125B) of 0.5 µg/mL. It also gave an MIC (P. aeruginosa 41A) of 4 µg/mL, an MIC (P. aeruginosa PAOΔmexZ) of 0.5 µg/mL and an MIC (P. aeruginosa 125A) of 0.5 µg/mL. It also gave an MIC [20] of 1 µg/mL (≈ 2.61 µM) and an MIC [21] of no more than 0.5 µg/mL.

`NCC[C@H](O)C(=O)N[C@@H]1C[C@H](N)[C@@H](O[C@H]2O[C@H](CN)[C@@H](O)[C@H](O)[C@H]2O)[C@H](O)[C@H]1O[C@H]1O[C@H](CO)[C@@H](O)[C@H](N)[C@H]1O` [AMI, amikacin] showed an MIC [1] of no more than 2 µg/mL, an MIC [2] of 2 to 4 µg/mL (≈ 3.42 to 6.83 µM) and an MIC [3] of 4 µg/mL (≈ 6.83 µM). For the same molecule, the MIC [4] was 4 µg/mL (≈ 6.83 µM), the MIC [5] was no more than 2 µg/mL and the MIC [6] was 8 µg/mL (≈ 13.7 µM). The MIC [7] was 4 µg/mL (≈ 6.83 µM), the MIC [8] was no more than 2 µg/mL and the MIC [9] was 4 µg/mL (≈ 6.83 µM). The MIC [10] was no more than 2 µg/mL, the MIC [11] was no more than 2 µg/mL and the MIC [12] was 4 µg/mL (≈ 6.83 µM). It also gave an MIC (P. aeruginosa PAO1, WT) of no more than 2 µg/mL, an MIC [13] of 4 µg/mL (≈ 6.83 µM) and an MIC [14] of no more than 2 µg/mL. For the same molecule, the MIC [15] was 4 µg/mL (≈ 6.83 µM), the MIC [16] was no more than 2 µg/mL and the MIC [17] was 4 µg/mL (≈ 6.83 µM). For the same molecule, the MIC [18] was no more than 2 µg/mL, the MIC [19] was no more than 2 µg/mL and the MIC [20] was no more than 2 µg/mL. For the same molecule, the MIC [21] was 4 µg/mL (≈ 6.83 µM).

`NC[C@H]1O[C@H](O[C@H]2[C@H](O)[C@@H](O[C@H]3O[C@H](CO)[C@@H](O)[C@H](N)[C@H]3O)[C@H](N)C[C@@H]2N)[C@H](N)C[C@@H]1O` [TOB, tobramycin] gave an MIC [1] of 0.5 µg/mL (≈ 1.07 µM), an MIC [2] of 0.5 µg/mL (≈ 1.07 µM) and an MIC [3] of 0.5 µg/mL (≈ 1.07 µM). It also gave an MIC [4] of 1 µg/mL (≈ 2.14 µM), an MIC [5] of no more than 0.25 µg/mL and an MIC [6] of 1 µg/mL (≈ 2.14 µM). For the same molecule, the MIC [7] was 1 µg/mL (≈ 2.14 µM), the MIC [8] was 0.5 µg/mL (≈ 1.07 µM) and the MIC [9] was 1 µg/mL (≈ 2.14 µM). The MIC [10] was no more than 0.25 µg/mL, the MIC [11] was 0.5 µg/mL (≈ 1.07 µM) and the MIC [12] was 0.5 µg/mL (≈ 1.07 µM). The MIC (P. aeruginosa PAO1, WT) was 0.25 to 0.5 µg/mL (≈ 0.535 to 1.07 µM), the MIC [13] was 0.5 µg/mL (≈ 1.07 µM) and the MIC [14] was no more than 0.25 µg/mL. For the same molecule, the MIC [15] was 0.5 µg/mL (≈ 1.07 µM), the MIC [16] was 0.25 to 0.5 µg/mL (≈ 0.535 to 1.07 µM) and the MIC [17] was 0.5 µg/mL (≈ 1.07 µM). For the same molecule, the MIC [18] was no more than 0.25 µg/mL, the MIC [19] was no more than 0.25 µg/mL and the MIC [20] was no more than 0.25 µg/mL. It also gave an MIC [21] of 0.5 µg/mL (≈ 1.07 µM).
